Data taken from patent US20090062403A1, “Compositions and Methods for Treatment of Disorders of Protein Aggregation” (priority 2004, published 2009).
Entries after “also recorded” stand apart in the source; their conditions may differ. Like-named read-outs stand apart in the source and are kept apart here. Marks after values point to notes of the source that are not given here.

Experiments:
TgCRND8 mice [1] = test: Morris Water Maze spatial reference memory test in TgCRND8 mice; format: in vivo, mouse; conditions: for Spatial learning performance (Morris Water Maze) compared to untreated TgCRND8 littermates: oral treatment for 28 days from 5 months of age, tested at 6 months
cerebral amyloid plaques = test: Cerebral amyloid burden (plaque number, area, size by immunohistochemistry); format: in vivo, mouse; conditions: TgCRND8 mice
Experimental: Mice. […] This initial dosage was chosen based upon the dosage of myo-cyclohexanehexol (6-18 grams/day/adult or 86-257 mg/Kg/day) that is typically administered to human patients for various psychiatric disorders. […] A cohort of animals (n=10 mice per treatment arm) entered the study at five months of age, and outcomes were then analyzed after one month of treatment. The body weight, coat characteristics and in cage behaviour were monitored. Mannitol was used as a negative control for potential alterations in caloric intake. All experiments were performed according to the Canadian Council on Animal Care guidelines. Behavioural tests: Morris Water Maze testing was performed as previously described. After non-spatial pre-training, mice underwent place discrimination training for 5 days with 4-trials per day, followed by a cued visible platform to rule out general motivational, learning deficits and motor problems, and a probe trial to evaluate memory. […] Open field test for motor activity was preformed as described previously. Duration of walking, pausing and grooming were analyzed as indices of spontaneous locomotor activity. Sensorimotor function was examined with an Economex™ accelerating rotarod (Columbus Instruments, Columbus, Ohio), as described elsewhere. The rod was set to accelerate at a rate of 0.2 r.p.m./s, from an initial, constant speed of 5 r.p.m. Latency to fall was recorded in four daily trials, conducted at 30 min intervals. All mice were trained for seven days before testing. The test day performance score for each animal was obtained by summing its latency to fall over the four trials Cerebral amyloid burden. Brains were removed and one hemisphere was fixed in 4% paraformaldehyde and embedded in paraffin wax in the mid sagittal plane. To generate sets of systematic uniform random sections, 5 μm serial sections were collected across the entire hemisphere. Sets of sections at 50 μm intervals were used for analyses (10-14 sections/set). Plaques were identified after antigen retrieval with formic acid, and incubation with primary anti-Aβ antibody (Dako M-0872), followed by secondary antibody (Dako StreptABCcomplex/horseradish kit). End products were visualized with DAB and were counter-stained with luxol fast blue. Amyloid plaque burden was assessed with LecoIA-3001 image analysis software interfaced with Leica microscope and Hitachi KP-M1U CCD video camera. Openlab imaging software (Improvision, Lexington, Mass.) was then used to convert micrographs to binary images for plaque number and plaque area determinations. Vascular amyloid burden was defined as amyloid originating from or surrounding blood vessels and was analysed similarly. Plasma and Cerebral Aβ Content. Hemi-brain samples were homogenized in a buffered sucrose solution, followed by either 0.4% diethylamine/100 mM NaCl for soluble Aβ levels or cold formic acid for the isolation of total Aβ. After neutralization, the samples were diluted and analyzed for Aβ40 and Aβ42 using commercially available kits (BIOSOURCE International). Each hemisphere was analyzed in triplicate and the mean values±SEM reported. Western blot analyses were performed on all fractions using urea gels for Aβ species analyses. Aβ was detected using 6E10 (BIOSOURCE International) and Enhanced Chemiluminenscence (Amersham). Gliosis Quantitation. Five randomly selected, evenly spaced, sagittal sections were collected from paraformaldehyde-fixed and frozen hemispheres of treated and control mice. Sections were immunolabelled for astrocytes with anti-rat GFAP IgG2, (Dako; diluted 1:50) and for microglia with anti-rat CD68 IgG2b (Dako; 1:50).

Aβ oligomers [2] = format: in vivo; conditions: rat
Text: The Aβ oligomers are naturally produced by cells transfected with genes that over-produce the amyloid precursor protein (APP). APP is cleaved by secretase(s) and the cells construct the oligomeric Aβ into molecules ranging from 2 to 12 amyloid proteins (2 mer to 12 mer) and secrete it into the culture medium (CM) of cultured cells. In addition, oligomeric Aβ is extracted from brain homogenate taken from transgenic mice (Tg2576) transfected with the Swedish APP mutation. […] These purified oligomeric forms of Aβ, at physiological concentrations relevant to those found in AD, are injected into the rat's lateral ventricle through an indwelling cannula while the animals are awake and moving. Two hours after injection the rats are tested under sensitive cognitive assay.
The assay, the Alternating Lever Cyclic Ratio (ALCR) test, has proven to be much more sensitive than previously published methods for measuring drug effects on cognitive function. In this task, rats must learn a complex sequence of lever-pressing requirements in order to earn food reinforcement in a two-lever experimental chamber. Subjects must alternate between two levers by switching to the other lever after pressing the first lever enough to get food reward. The exact number of presses required for each food reward changes, first increasing from 2 responses per food pellet up to 56 presses per food pellet, then decreasing back to 2 responses per pellet. Intermediate values are based on the quadratic function, x^2−x. One cycle is an entire ascending and descending sequence of these lever press requirements (e.g., 2, 6, 12, 20, 30, 42, 56, 56, 42, 30, 20, 12, 6, and 2 presses per food reward). Six such full cycles are presented during each daily session.
Oligomeric Aβ: Prepared from transfected Chinese Hamster Ovary Cells (7PA2 cells). These cells secrete oligomeric Aβ into the culture medium (CM) at physiological levels. Aβ oligomers was also derived from Tg2576 mouse brain and purified by size exclusion chromatography. Samples of oligomeric Aβ were characterized by Western Blot Analysis. Appropriate control compounds were produced and tested for each active Aβ oligomeric configuration. Rats: Forty (40) rats were trained under ALCR for approximately 3 months until their error rates are stable. Training sessions were conducted 5 days each week. Surgery: After training, all rats received a single 28 ga. cannula that was permanently affixed to the skull, and aimed at the lateral ventricle (divided equally between left and right). Rats were allowed 5 days to recover from surgery. Administration: In vivo administration of AZD103 to rats was performed by dissolving AZD103 into drinking water. Different concentrations were prepared, and the average daily water intake used to target specific average daily dose levels. These dose levels were therefore approximate. Testing: AZD 103 was tested against Aβ oligomers known to disrupt cognitive function. Two general procedures were incorporated. • 1. AZD 103 was incubated with the injectate medium containing Aβ oligomers prior to assessing it's affect on ALCR. Appropriate control injections were included un-incubated (untreated) Aβ oligomers as well as AZD 103 were injected ICV. • 2. Rats were treated with AZD 103, administered in drinking water, for at least 3-4 days prior to testing ICV injection of Aβ oligomers preparations known to affect cognitive function under ALCR.
Treatments were assessed in the following order: • 1. ICV 7PA2 CM alone • 2. ICV AZD 103 alone • 3. ICV ex vivo incubated 7PA2 CM with AZD 103 • All rats received treatments 1-3 in randomized order. • 4. ICV 7PA2 CM after 4 days treatment with PO AZD103 30 mg/kg/day. • 5. ICV 7PA2 CM after 4 days treatment with PO AZD103 100 mg/kg/day. • 6. ICV 7PA2 CM after 4 days treatment with PO AZD103 300 mg/kg/day. • 7. ICV 7PA2 CM after 4 days with no treatment. […]

7PA2 cells = format: cell-based, Chinese Hamster
Experimental: (§1) Preparation of conditioned media: CHO— or 7PA2 cells were grown to ˜90% confluency. The cells were washed 1× in serum-free DMEM, then incubated overnight (˜15 hrs) in 4 ml/10 cm dish in serum-free DMEM, pen/strep, 1-glutamine with/without AZD-103. The following day, the conditioned media (CM) was collected, spun at 1000×g and treated with complete protease inhibitors (in mg/ml 1 leupeptin, 1 pepstatin, 0.1 aprotinin, 40 EDTA, and 2 mM 1/10 phenantroline) for biochemistry experiments or cell culture compatible protease inhibitors (Sigma P1860 1:1000) for electrophysiology experiments. The CM was stored at −80° C. until sufficient volumes were collected to complete a “batch”—typically ˜300 ml. […] The resulting concentrate was pooled, aliquoted in 1 ml fractions, and stored at −80° C. […] Therefore, for any given set of experiments (i.e. dose response curve, time curve, etc), a single batch is prepared and compared to 7PA2 alone within that batch.

Aβ oligomers [3] = conditions: rat, in vivo
TgCRND8 mice [4] = conditions: mouse, in vivo
Experimental: Mice. […] This initial dosage was chosen based upon the dosage of myo-cyclohexanehexol (6-18 grams/day/adult or 86-257 mg/Kg/day) that is typically administered to human patients for various psychiatric disorders. […] A cohort of animals (n=10 mice per treatment arm) entered the study at five months of age, and outcomes were then analyzed after one month of treatment. The body weight, coat characteristics and in cage behaviour were monitored. Mannitol was used as a negative control for potential alterations in caloric intake. All experiments were performed according to the Canadian Council on Animal Care guidelines. Behavioural tests: Morris Water Maze testing was performed as previously described. […] Duration of walking, pausing and grooming were analyzed as indices of spontaneous locomotor activity. […] Latency to fall was recorded in four daily trials, conducted at 30 min intervals. […] Amyloid plaque burden was assessed with LecoIA-3001 image analysis software interfaced with Leica microscope and Hitachi KP-M1U CCD video camera. […] Vascular amyloid burden was defined as amyloid originating from or surrounding blood vessels and was analysed similarly. […] After neutralization, the samples were diluted and analyzed for Aβ40 and Aβ42 using commercially available kits (BIOSOURCE International). Each hemisphere was analyzed in triplicate and the mean values±SEM reported. […] Gliosis Quantitation. […]

synaptophysin = test: Synaptophysin quantification in CA1 region of the hippocampus; format: in vivo, mouse; conditions: TgCRND8 mice; for increase of synaptophysin reactive boutons and cell bodies: vs untreated
Experimental: Synaptophysin immunohistochemical staining was performed on 3 evenly spaced saggital sections of paraformaldehyde-fixed treated and control mice. Sections were immunolabelled for synaptophysin with anti-synaptophysin IgG (1:40; Roche, Laval, PQ). Digital images were captured and analyzed as described above. Within each section, three randomly chosen 100 μm^2 areas of the CA1 region of the hippocampus were counted for synaptophysin reactive cell bodies and boutons. The results are expressed as the mean of the number of reactive bodies and boutons per 100 μm^2 [48, 49].

Aβ42 = target: T1, Aβ42 (Homo sapiens, UniProt P05067); test: Plasma Aβ42 levels in TgCRND8 mice; format: in vivo, mouse; conditions: TgCRND8 mice following 28 days of therapy at five months of age
T1 construct: from tissue; host or cells: hemi-brain homogenate of TgCRND8 transgenic mice

Aβ oligomers [5] = test: IP/Western blot of Aβ oligomers in 7PA2 conditioned media; format: cell-based, human
Experimental: as §1
IP/Western blots: 8 ml of 7PA2 CM were precleared with […] of protein A agarose for 30 min. The beads were spun down, and […] of the polyclonal anti-Aβ antibody R1282 was added to the supernatant with an additional 40 μl of protein A agarose. These samples were nutated at 4° C. overnight. The beads were washed with a series of buffers 0.5 STEN (sodium chloride, tris, EDTA, NP-40), SDS STEN, STEN. 2× tricine sample buffer was added to the washed beads, which were then boiled, centrifuged, and the resulting supernatant loaded onto 10-20% tricine gels. The proteins were then transferred to nitrocellulose, and probed with the anti-Aβ antibody 6E10.

[6] = 28 day course at 5 months of age, vs untreated
[7] = 28 days treatment, 6 months of age
[8] = ICV AZD103 alone, % of baseline errors
[9] = ICV Aβ oligomers incubated ex vivo with AZD103, % of baseline errors
[10] = ICV oligomers after 4 days p.o. 30 mg/kg/day in drinking water
[11] = ICV oligomers after 4 days p.o. 100 mg/kg/day in drinking water
[12] = ICV oligomers after 4 days p.o. 300 mg/kg/day in drinking water
[13] = 1.25 μM applied to 7PA2 CM (post-cond)

Aβ oligomers, sequence (P05067 672-711 limits assumed): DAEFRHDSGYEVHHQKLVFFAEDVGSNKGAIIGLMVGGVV
T1 sequence (P05067 672-713 limits assumed): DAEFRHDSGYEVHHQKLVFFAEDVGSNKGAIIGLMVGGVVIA

“1,3,5/2,4,6-(scyllo-) cyclohexanehexol [Scyllo-cyclohexanehexol]” was tested, and the “effects on cognition and pathology” value (TgCRND8 mice [1]; TgCRND8 mice, administered for 2 months, ending at 7 months of age) was “Sustained effects both on cognition and pathology were observed”, the “Spatial learning performance (Morris Water Maze) compared to untreated TgCRND8 littermates” value (TgCRND8 mice [1]; TgCRND8 mice) was “significantly better behavioural performance compared to untreated TgCRND8 mice; also recorded: significantly better than untreated TgCRND8 littermates” and the “% time in target quadrant (probe trial, alternate measure)” value (TgCRND8 mice [1]; separate cohort of TgCRND8 mice, data not shown) was “not statistically different from non-Tg littermates”. The “percent area of the brain covered by plaques, reduction” value (cerebral amyloid plaques; [6]) was 14±0.5%, the plaque number reduction (cerebral amyloid plaques; [6]) was 13±0.3% and the plaque size reduction (cerebral amyloid plaques; [6]) was 16±0.4%. For the same compound, the “Mean Plaque Size” value (cerebral amyloid plaques; [7]) was 336 ± 6* μm^2, the “Total Plaque Area” value (cerebral amyloid plaques; [7]) was 420027 ± 14986* μm^2 and the “Total Plaque Count” value (cerebral amyloid plaques; [7]) was 1260 ± 27. The “performance in ALCR when administered without oligomers” value (Aβ oligomers [2]; ICV AZD103 alone) was “no impact on performance”, the Perseveration % errors (Aβ oligomers [2]; [8]) was 99% and the Switching % errors (Aβ oligomers [2]; [8]) was 99%. For the same compound, the Perseveration % errors (Aβ oligomers [2]; [9]) was 100%, the Switching % errors (Aβ oligomers [2]; [9]) was 95% and the Perseveration % errors (Aβ oligomers [2]; [10]) was 120%. For the same compound, the Switching % errors (Aβ oligomers [2]; [10]) was 109%, the Perseveration % errors (Aβ oligomers [2]; [11]) was 120% and the Switching % errors (Aβ oligomers [2]; [11]) was 100%. The Perseveration % errors (Aβ oligomers [2]; [12]) was 99%, the Switching % errors (Aβ oligomers [2]; [12]) was 109% and the “toxicity (7PA2 cells, APPs expression, LTP in CHO— conditions)” value (7PA2 cells) was “No direct evidence of AZD-103 toxicity was observed”. For the same compound, the “brain penetrance following oral dosing” value (Aβ oligomers [3]) was “sufficiently brain penetrant”, the “grooming or activity in the open field test” value (TgCRND8 mice [4]) was “no effect on grooming or activity” and the “sensorimotor function (Rotarod), treated vs untreated TgCRND8 mice” value (TgCRND8 mice [4]) was “no difference”. For the same compound, the “number of synaptophysin reactive boutons and cell bodies in the CA1 region” value (synaptophysin; delayed treatment study) was 2625±124 /100 μm^2, the “increase of synaptophysin reactive boutons and cell bodies” value (synaptophysin; delayed treatment study) was 150% and the “number of synaptophysin reactive boutons and cell bodies in the CA1 region” value (synaptophysin; prophylactic study group) was 2384±232 /100 μm^2. For the same compound, the “increase of synaptophysin reactive boutons and cell bodies” value (synaptophysin; prophylactic study group) was 148%, the “Plasma Aβ42 levels” value (Aβ42) was 990 ± 73 pg/mL and the “Aβ dimer on Western blots” value (Aβ oligomers [5]; [13]) was “unaffected”. The “Aβ trimer on Western blots” value (Aβ oligomers [5]; [13]) was “reduced the trimer” and the “Aβ dimer and trimer levels measured absolutely and normalized to monomer” value (Aβ oligomers [5]; dose response, pre-cond and post-cond, all concentrations) was “appeared to reduce dimer and trimer levels”.
In the case of `OC1C(O)C(O)C(O)C(O)C1O` (stereo not drawn) [Epi-cyclohexanehexol, 1,2,3,4,5/6-(epi-) cyclohexanehexol, reference compound], the “Spatial learning performance (Morris Water Maze) compared to untreated TgCRND8 littermates” value (TgCRND8 mice [1]; TgCRND8 mice) is reported as “not significantly different from that of untreated TgCRND8 littermates”.
